Results taken from patent US20120289884A1, “Fused Ring Diarylamino Photosensitizers for Phototherapy” (Mallinckrodt LLC, priority 2011, published 2012).
Like-named read-outs stand apart in the source and are kept apart here.

System: U937 leukemia cancer cell line
Assay: Cell viability (phototoxicity) WST-1 assay with and without UV light;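 further: WST-1 absorbance at 480 and 600 nm after 2 h compound preincubation, 20 min UV irradiation (peak 365 nm) or none, then 24 h recovery at 37 °C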
Details: for IC50: Homo sapiens, U-937, 20 min; for cell viability with increasing concentration of compound, light exposure: 20 minutes light exposure; for activity under the photolytic conditions (in words): UV-A/UV-B light
[1] = read-out: VC50/20, U937 cells, 20 minutes UV light exposure

Protocol: The compounds were dissolved in DMSO (8 mM) and diluted with the cell culture media such that the amount of the DMSO exposed to the cells remained below 0.5% (64 mM). After light exposure, cell viability is assessed using a WST-1 (4-[3-(4-Iodophenyl)-2-(4-nitrophenyI)-2H-5-tetrazolio]-1, 3-benzene disulfonate) cell proliferation assay (Roche Diagnostics, NJ, USA). At the end of 22 hours, WST-1 is added to each well of plate. After 2 hours of incubation, the metabolic activity is quantified by absorbance measurements at 480nm and 600nm using a Synergy 4 plate reader (BioTEK Instruments, VT, USA). The number of viable cells is determined and percent viability is determined:
Viability measurements are analyzed to provide VC50/20 values which is defined as the concentration at which 50% decrease in cell viability is observed when the cells are exposed to light and the photosensitizes for 20 minutes.
Photoxicity of diarylamines were tested for their photo-toxicity in U937 cells (ATCC,VA) a monocytic leukemia cell line. Cells were cultured, harvested and counted with trypan blue exclusion method to ensure 95% viability. The cells were then plated at a density of 20,000 cells/well in flat bottom 96 well plates and incubated overnight. On the following day, dilutions of the compounds to be screened were prepared in complete RPMI media and added to cells followed by a 2-hour incubation. After the preincubation time, the cells were irradiated for 20 minutes with 100 W UV lamp (Model B-100A, UVP, Upland, Calif.) with peak output at 365 nm and a bandwidth of about 50 nm. The light source was not optimized for each compound with respect to power and wavelength. The total power near the surface of the microtiter plate is about 8 mW. The temperature at the surface of the microtiter plates were kept below 37° C. with external air cooling. After light exposure, cells were allowed to recover at 37° C. in a CO2 incubator for 24 h, and thereafter the viability was assessed using a WST-1 (4-[3-(4-Iodophenyl)-2-(4-nitrophenyl)-2H-5-tetrazolio]-1,3-benzene disulfonate) cell proliferation assay (Roche Diagnostics, NJ, USA). At the end of 22 hours, WST-1 was added to each well of plate. After 2 hours of incubation, the metabolic activity was quantified by absorbance measurements at 480 nm and 600 nm using a Synergy 4 plate reader (BioTEK Instruments, VT, USA). The percent viability was calculated as [OD value of treated cells/mean OD value of control cells]×100%). The percent cell viability assay values were then plotted in Graph Pad Prism (Graph Pad Software Inc, La Jolla, Calif.) and VC50/20 values for each compound was obtained using nonlinear regression analysis of the log inhibitor versus response in a 4 parameter curve fit. Each compound was tested for minimum of n=3. The corresponding control conditions for the cell viability assays were: (a) DMSO only (no photosensitizer), no light; (b) DMSO only (no photosensitizer) light; and (c) photosensitizer, no light (dark toxicity).
A general procedure is carried out for measuring cell viability upon exposure of U937 leukemia cells to a number of diarylamino photosensitizers of the invention and light. U937 cells are harvested and counted with trypan blue exclusion method to ensure viability. The cells are then plated at a density of 20,000 cells/well in flat bottom 96 well plates and incubated overnight. On the following day, dilutions of the compounds to be screened are prepared in complete RPMI media and added to cells followed by a 2 hour incubation. After the preincubation time, cells are exposed to UV light for various times and then allowed to recover at 37° C. in a CO2 incubator for 24 h.
The cell viability analysis is carried out using a human myeloid leukemia U937 cell line by the standard WST-1 assay.

SMILES	IC50 (read-out: VC50/20) [µM]	IC50 [1] [µM]	cell viability with increasing concentration of compound, light exposure (U937 cells)	activity under the photolytic conditions (in words) (U937 cells)	cell viability with increasing concentration of compound, no light exposure (dark toxicity) (U937 cells, no light exposure)
c1ccc2c(c1)Cc1ccccc1N2 [(FX9), acridan]	0.68 ± 0.11	0.68	substantial decrease in cell viability	very potent	no substantial decrease in cell viability
c1ccc(C2c3ccccc3Nc3ccccc32)cc1 [(FX17), 9-phenylacridan]	0.17 ± 0.01	0.17	substantial decrease in cell viability	most potent	–
C1=Cc2ccccc2Nc2ccccc21 [(FX8), 5H-Dibenz[b,f]azepine]	2.58 ± 1.14	~2.58	substantial decrease in cell viability	very active	–
CN1c2ccccc2Cc2ccccc21 [(FX19), N-methylacridan]	–	–	–	decreased the activity	–
c1ccc2c(c1)Nc1ccccc1S2 [(FX10), phenothiazine]	1.39 ± 0.11	~1.39	substantial decrease in cell viability	highly active	–
c1ccc(Nc2ccccc2)cc1 [(FX20), Diphenylamine]	–	–	–	inactive	–
c1ccc2c(c1)Nc1ccccc1O2 [(FX11), Phenoxazine]	14.5 ± 1.54	–	substantial decrease in cell viability	weakly active	–
c1ccc2c(c1)[nH]c1ccccc12 [(FX3), carbazole]	5.56 ± 1.15	~5	substantial decrease in cell viability	moderately active	–
c1ccc(C2c3ccccc3Nc3ccccc32)cc1 [(FX7)]	–	–	–	less active	–
